# How the values were obtained:
# human cathepsin B = human cathepsin B (Homo sapiens, UniProt P07858); assay: Cathepsin B inhibition assay, fluorogenic substrate Cbz-Phe-Arg-AMC; type: biochemical; conditions: Table 2; enzyme from human liver tissue, pH 5.5, 30° C., 10 μM substrate; read-out: hCat B Ki
# Procedure: (§1) All assays for cathepsin K were carried out with human and rat recombinant enzyme. Assays for cathepsins S Et V were also carried out with human recombinant enzyme. Assays for human cathepsins B. H. and L were carried out with enzyme, purchased from Athens Research and Technology, Inc., prepared from human liver tissue. Standard assay conditions for the determination of kinetic constants used a fluorogenic peptide substrate, typically (5S,8S)-13-amino-5-benzyl-13-imino-3-methylene-N-(4methyl-2-oxo-2H-chromen-7-yl)-6-oxo-1-phenyl-2-oxa-4,7,12-triazatridecane-8-carboxamide (Cbz-Phe-Arg-AMC), and were determined in 100 mM sodium acetate at pH 5.5 containing 10 mM dithiothreitol and 120 mM sodium chloride. A stock substrate solution of Cbz-Phe-Arg-AMC was prepared at a concentration of 50 mM in dimethyl sulfoxide. This substrate was diluted into the assay for a final substrate concentration of 10 μM in the rat cathepsin K, human cathepsin K, and human cathepsin B assays; a final substrate concentration of 5 μM in the human cathepsin L assay; and a final substrate concentration of 2 μM in the human cathepsin V assay.
# (§2) All assays contained 10% dimethyl sulfoxide. […] All assays were conducted at 30° C. Product fluorescence (excitation at 360 nm; emission at 440 nm, (except cathepsin H which used excitation at 340 nm; emission at 420 nm)) was monitored with a PerSeptive Biosystems Cytofluor II fluorescence plate reader. Product progress curves were generated over 2.3 h monitoring the formation of 7-amino-4-methylcoumarin product (or β-naphthalamide for cathepsin H).
# (§3) Potential inhibitors were evaluated using the progress curve method. Assays were carried out in the presence of variable concentrations of test compound. Reactions were initiated by addition of buffered solutions of inhibitor and substrate to enzyme. Data analysis was conducted according to one of two procedures depending on the appearance of the progress curves in the presence of inhibitors. For those compounds whose progress curves were linear, the enzymatic activity (RATE) was plotted against the concentration of test compound, including inhibitor concentration of zero ([I]=0), and the IC50 determined from a fit of equation 1 to the data, RATE=Vmax/(1+([I]/IC50)) (1) where Vmax is the best fit estimate of the maximal enzymatic activity. Ki values were calculated from IC50 values using equation 2 assuming a competitive model. [formula]
# human cathepsin S = human cathepsin S (Homo sapiens, UniProt P25774); assay: Cathepsin S inhibition assay, fluorogenic substrate Cbz-Val-Val-Arg-AMC; type: biochemical; conditions: Table 2; human recombinant enzyme, pH 5.5, 30° C., 10 μM substrate; read-out: hCat S Ki
# Chain of human cathepsin S (P25774 115-331): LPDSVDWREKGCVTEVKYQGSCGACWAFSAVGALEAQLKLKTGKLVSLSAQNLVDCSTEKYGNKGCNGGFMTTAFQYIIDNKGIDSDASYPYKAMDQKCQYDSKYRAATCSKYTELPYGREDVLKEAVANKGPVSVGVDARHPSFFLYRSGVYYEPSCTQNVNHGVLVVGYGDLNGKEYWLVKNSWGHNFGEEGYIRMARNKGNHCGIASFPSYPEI
# Procedure: as §1
# A stock substrate solution of benzyl (1S)-1-{[((1S)-1-{[((1S)-4-{[amino(imino)methyl]amino}-1-{[(4-methyl-2-oxo-2H-chromen-7-yl)amino]carbonyl}butyl)amino]carbonyl}-2-methylpropyl)amino]carbonyl}-2-methylpropylcarbamate (Cbz-Val-Val-Arg-AMC) was prepared at a concentration of 10 mM in dimethyl sulfoxide. This substrate was diluted into the assay for a final substrate concentration of 10 μM in the human cathepsin S assay.
# as §2, §3
Compound,Ki (human cathepsin B),Ki (human cathepsin S)
"CCCC[C@H](NC(=O)O[C@H](Cc1nnc(-c2ccc(F)cc2)o1)C(C)(C)C)C(=O)C(=O)Nc1ccnn1C (stereo in doubt) [Example 22, (1R)-1-{[5-(4-fluorophenyl)-1,3,4-oxadiazol-2-yl]methyl}-2,2-dimethylpropyl(1S)-1-[[(1-methyl-1H-pyrazol-5-yl)amino](oxo)acetyl]pentyl carbamate]",100 to 10000 nM,100 to 10000 nM
"CCCC[C@H](NC(=O)O[C@H](Cn1cnc(-c2ccc(C(F)(F)F)cc2)c1)C(C)(C)C)C(=O)C(=O)Nc1ccnn1C1CCC1 [Example 35, (1S)-2,2-dimethyl-1-({4-[4-(trifluoromethyl)phenyl]-1H-imidazol-1-yl}methyl)propyl(1S)-1-[[(1-cyclobutyl-1H-pyrazol-5-yl)amino](oxo)acetyl]pentylcarbamate]",100 to 10000 nM,1 to 100 nM
"CCCC[C@H](NC(=O)O[C@H](c1nnc(-c2ccc(C(F)(F)F)cc2)o1)C(C)(C)C)C(=O)C(=O)Nc1ccn[nH]1 [Example 38, (1S)-2,2-dimethyl-1-{5-[4-(trifluoromethyl)phenyl]-1,3,4-oxadiazol-2-yl}propyl(1S)-1-[oxo(1H-pyrazol-5-ylamino)acetyl]pentylcarbamate]",1 to 100 nM,1 to 100 nM
"CCCC[C@H](NC(=O)O[C@H](c1nnc(-c2ccc(C(F)(F)F)cc2)o1)C(C)(C)C)C(=O)C(=O)NN1CCOC1=O [Example 39, (1S)-2,2-dimethyl-1-{5-[4-(trifluoromethyl)phenyl]-1,3,4-oxadiazol-2-yl}propyl(1S)-1-{oxo[(2-oxo-1,3-oxazolidin-3-yl)amino]acetyl}pentylcarbamate]",1 to 100 nM,1 to 100 nM

# Continued, values first:
Ki (human cathepsin B),Ki (human cathepsin S),Compound
1 to 100 nM,0.01 to 1 nM,CCCC[C@H](NC(=O)O[C@H](Cn1ccc(-c2ccc(C(F)(F)F)cc2)n1)C(C)(C)C)C(=O)C(=O)Nc1ccn[nH]1 [Example 1]
1 to 100 nM,0.01 to 1 nM,"CCCC[C@H](NC(=O)O[C@H](Cn1cnc(-c2ccc(C(F)(F)F)cc2)c1)C(C)(C)C)C(=O)C(=O)Nc1ccn[nH]1 [Example 7, (1S)-2,2-dimethyl-1-({4-[4-(trifluoromethyl)phenyl]-1H-imidazol-1-yl}methyl)propyl(1S)-1-[oxo(1H-pyrazol-5-ylamino)acetyl]pentylcarbamate]"
1 to 100 nM,0.01 to 1 nM,"CCCC[C@H](NC(=O)O[C@H](Cn1cnc2cc(Cl)c(Cl)cc21)C(C)(C)C)C(=O)C(=O)Nc1ccn[nH]1 [Example 37, (1S)-1-[(5,6-dichloro-1H-benzimidazol-1-yl)methyl]-2,2-dimethylpropyl(1S)-1-[oxo(1H-pyrazol-5-ylamino)acetyl]pentylcarbamate]"
